Assay results: patent US20220106301A1, “ACETAMIDO-PHENYLBENZAMIDE DERIVATIVES AND METHODS OF USING THE SAME” (Athenex, Inc., priority 2020, published 2022)

The compounds below were run against CYP3A4 (Homo sapiens, UniProt P08684) (assay: Determination of CYP3A4 inhibitory activity (human liver microsome, Luciferin-IPA)). Conditions: CYP3A4 IC50 (nM), 37° C. 11 minutes.
Procedure: The standard final Compound concentrations were 37, 111, 333, 1000, and 3000 nM. 12.5 μL of the Compound dilutions were transferred to a white 96-well plate. […] 25 μL of the buffer was added to each well. The plates were incubated at 37° C. for 11 minutes. 50 μL of luciferin detection reagent (Promega V9002) was added and the plates were incubated at room temperature for 5 minutes. The plate was read with a luminometer.
The dose-response curve and IC50 were obtained by fitting data to nonlinear regression model using GraphPad Prism software (v6.0).

Sequence of CYP3A4 (P08684 whole entry): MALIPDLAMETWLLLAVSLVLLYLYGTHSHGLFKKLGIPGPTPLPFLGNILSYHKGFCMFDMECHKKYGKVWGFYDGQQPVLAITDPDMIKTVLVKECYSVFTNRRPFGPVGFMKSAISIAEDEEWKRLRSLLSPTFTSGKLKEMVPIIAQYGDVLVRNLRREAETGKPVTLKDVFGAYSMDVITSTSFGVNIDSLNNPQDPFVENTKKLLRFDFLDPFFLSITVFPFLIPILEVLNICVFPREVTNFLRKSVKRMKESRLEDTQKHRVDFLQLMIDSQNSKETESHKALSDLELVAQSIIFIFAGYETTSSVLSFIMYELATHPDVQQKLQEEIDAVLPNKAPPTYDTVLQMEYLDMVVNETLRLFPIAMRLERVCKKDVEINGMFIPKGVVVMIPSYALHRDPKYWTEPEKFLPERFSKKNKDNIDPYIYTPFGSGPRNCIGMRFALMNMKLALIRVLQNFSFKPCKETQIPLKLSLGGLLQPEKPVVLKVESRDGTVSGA

Row | Compound | IC50 [nM]
1 | COc1cc(NC(=O)c2cc(=O)c3ccccc3o2)c(C(=O)NCc2ccc(CN(Cc3cccnc3)Cc3ccc4c(cnn4C)c3)cc2)cc1OC [Compound 234] | 100 to 250
2 | CCN(CCc1ccc(NC(=O)c2cc(OC)c(OC)cc2NC(=O)c2cc(=O)c3ccccc3o2)cc1)Cc1ccc(O)c(OC)c1 [Compound 135] | 500 to 1000
3 | COc1cc(NC(=O)c2cc(=O)c3ccccc3o2)c(C(=O)Nc2ccc(CCN(Cc3ccc4cnn(C)c4c3)Cc3ccc4cnn(C)c4c3)cc2)cc1OC [Compound 170] | > 1000
4 | CCN(CCc1ccc(NC(=O)c2cc(OC)c(OC)cc2NC(=O)c2cc(=O)c3ccccc3o2)cc1)Cc1cccc(-c2ccco2)c1 [Compound 141] | > 1000
5 | COc1cc(NC(=O)c2cc(=O)c3ccccc3o2)c(C(=O)Nc2ccc(CCN(C)Cc3ccc(-c4cscn4)cc3)cc2)cc1OC [Compound 112] | > 1000
6 | Cn1ncc2cc(CN(CCc3ccc(NC(=O)c4ccc(C(=O)OCc5cncs5)cc4NC(=O)c4cc(=O)c5ccccc5o4)cc3)Cc3ccc4c(cnn4C)c3)ccc21 [Compound 266] | > 1000
7 | COc1cc(NC(=O)c2cnc3c(O)cccc3c2)c(C(=O)Nc2ccc(CCN(C)Cc3ccc4c(cnn4C)c3)cc2)cc1OC [Compound 136] | > 1000
8 | COc1cc(NC(=O)c2cc(=O)c3ccccc3o2)c(C(=O)Nc2ccc(CCNCc3cccnc3)cc2)cc1OC [Compound 214] | > 1000
9 | COc1cc(NC(=O)c2cc(=O)c3ccccc3o2)c(C(=O)Nc2ccc(CCN(Cc3cncc(OCCN4CCOCC4)c3)Cc3ccc4c(cnn4C)c3)cc2)cc1OC [Compound 240] | 250 to 500
10 | COc1cc(NC(=O)c2cc(=O)c3ccccc3o2)c(C(=O)Nc2ccc(CCN(C)Cc3cccc(-c4cncs4)c3)cc2)cc1OC [Compound 15] | 500 to 1000
11 | COc1cc(NC(=O)c2cc(=O)c3ccccc3o2)c(C(=O)Nc2ccc(CCN(C)Cc3cncn3C)cc2)cc1OC [Compound 86] | 250 to 500
12 | COc1cc(NC(=O)c2cc(=O)c3ccccc3o2)c(C(=O)Nc2ccc(CCN(Cc3ccc4c(cnn4C)c3)Cc3cccnc3N)cc2)cc1OC [Compound 226] | > 1000
13 | COc1cc(NC(=O)c2cc(=O)c3ccccc3o2)c(C(=O)Nc2ccc(CCN(C)C(=O)c3ccc(-n4ccnc4)cc3)cc2)cc1OC [Compound 123] | < 100
14 | COc1cc(NC(=O)c2cc(=O)c3ccccc3o2)c(C(=O)Nc2ccc(CCN(Cc3cncs3)Cc3cccc4cnn(C)c34)cc2)cc1OC [Compound 200] | > 1000
15 | CCN(CCc1ccc(NC(=O)c2cc(OC)c(OC)cc2NC(=O)c2cc(=O)c3ccccc3o2)cc1)Cc1ccc2[nH]ncc2c1 [Compound 184] | > 1000
16 | CCc1cn(-c2cccc(CN(C)CCc3ccc(NC(=O)c4cc(OC)c(OC)cc4NC(=O)c4cc(=O)c5ccccc5o4)cc3)c2)cn1 [Compound 105] | 100 to 250
17 | COc1cc(NC(=O)c2cc(=O)c3ccccc3o2)c(C(=O)Nc2ccc(CCN(C)Cc3ccc4c(c3)ncn4C)cc2)cc1OC [Compound 98] | > 1000
18 | COc1cc(NC(=O)c2cc(=O)c3ccccc3o2)c(C(=O)Nc2ccc(CCN(Cc3cncc(C)c3)Cc3ccc4c(cnn4C)c3)cc2)cc1OC [Compound 57] | 250 to 500
19 | COc1cc(NC(=O)c2cc(=O)c3ccccc3o2)c(C(=O)Nc2ccc(CCN(Cc3cccnc3)Cc3cccc4cnn(C)c34)cc2)cc1OC [Compound 201] | 500 to 1000
20 | COc1cncc(CN(CCc2ccc(NC(=O)c3cc(OC)c(OC)cc3NC(=O)c3cc(=O)c4ccccc4o3)cc2)Cc2ccc3c(cnn3C)c2)c1 [Compound 48] | 100 to 250
21 | COc1cc(NC(=O)c2cc(=O)c3cc(C)ccc3o2)c(C(=O)Nc2ccc(CCN(Cc3cncc(C(C)C)c3)Cc3ccc4c(cnn4C)c3)cc2)cc1OC [Compound 76] | > 1000
22 | COc1cc(NC(=O)c2cc(=O)c3ccccc3o2)c(C(=O)Nc2ccc(CCN(C)Cc3cccc(OC[C@@H]4CO[C@@](Cn5ccnc5)(c5ccc(Cl)cc5Cl)O4)c3)cc2)cc1OC [Compound 17] | < 100
23 | COc1cc(NC(=O)c2cc(=O)c3ccccc3o2)c(C(=O)Nc2ccc(CCN(C)Cc3ccc(-n4cncn4)cc3)cc2)cc1OC [Compound 19] | 250 to 500
24 | COc1cc(NC(=O)c2cc(=O)c3ccccc3o2)c(C(=O)Nc2ccc(CCN(Cc3cccc(-c4nc(C)no4)c3)Cc3cncs3)cc2)cc1OC [Compound 202] | 500 to 1000
25 | COc1cncc(CN(CCc2ccc(NC(=O)c3ccc(C(=O)O)cc3NC(=O)c3cc(=O)c4ccccc4o3)cc2)Cc2ccc3c(cnn3C)c2)c1 [Compound 259] | > 1000
26 | COc1cc2c(cc1OC)CN(CCc1ccc(NC(=O)c3ccc(C(=O)OCCCn4ccnc4)cc3NC(=O)c3cc(=O)c4ccccc4o3)cc1)CC2 [Compound 262] | < 100
27 | COc1cncc(CN(CCc2ccc(NC(=O)c3cc(OC)c(OC)cc3NC(=O)c3cc(=O)c4ccccc4o3)cc2)Cc2ccc3c(c2)c(C)nn3C)c1 [Compound 63] | 500 to 1000
28 | COc1cc(NC(=O)c2cnc3ccccc3c2)c(C(=O)Nc2ccc(CCN(Cc3cccc(-n4ccnc4)c3)Cc3ccc4c(c3)c(C)nn4C)cc2)cc1OC [Compound 179] | 250 to 500

Row | Compound | IC50 [nM]
29 | CCN(CCc1ccc(NC(=O)c2cc(OC)c(OC)cc2NC(=O)c2cc(=O)c3ccccc3o2)cc1)Cc1ccc2oncc2c1 [Compound 165] | > 1000
30 | COc1cc(NC(=O)C2CC(=O)c3cc(C)ccc3O2)c(C(=O)Nc2ccc(CCN(Cc3cccc(-n4ccnc4)c3)Cc3ccc4c(cnn4C)c3)cc2)cc1OC (stereo not shown) [Compound 199] | 500 to 1000
31 | COc1cc(NC(=O)c2cc(=O)c3ccccc3o2)c(C(=O)Nc2ccc(CCN(Cc3cccnc3)Cc3ccc(C)c4ncccc34)cc2)cc1OC [Compound 250] | 100 to 250
32 | COc1cc(NC(=O)c2cc(=O)c3ccccc3o2)c(C(=O)Nc2ccc(CCN(Cc3cccc(-n4ccnc4C)c3)Cc3ccc4c(cnn4C)c3)cc2)cc1OC [Compound 249] | > 1000
33 | CCn1cncc1CN(CCc1ccc(NC(=O)c2cc(OC)c(OC)cc2NC(=O)c2cnc3ccccc3n2)cc1)Cc1ccc2c(cnn2C)c1 [Compound 34] | 100 to 250
34 | COc1cc(NC(=O)c2cc(=O)c3ccccc3o2)c(C(=O)Nc2ccc(CCN(Cc3cccc(-n4cnc(C)c4)c3)Cc3ccc4c(cnn4C)c3)cc2)cc1OC [Compound 23] | 250 to 500
35 | COc1cc(NC(=O)c2cc(=O)c3ccccc3o2)c(C(=O)Nc2ccc(CCN)cc2)cc1OC [Compound 215] | > 1000
36 | COc1cc(NC(=O)c2cc(=O)c3ccccc3o2)c(C(=O)Nc2ccc(CCN(Cc3ccc4c(c3)CCO4)Cc3ccc4c(cnn4C)c3)cc2)cc1OC [Compound 163] | > 1000
37 | CN(CCc1ccc(NC(=O)c2ccc(C(=O)OCc3cncs3)cc2NC(=O)c2cnc3ccccc3c2)cc1)Cc1ccc2c(cnn2C)c1 [Compound 283] | 500 to 1000
38 | COc1cc(NC(=O)c2cnc3ccccc3n2)c(C(=O)Nc2ccc(CCN(Cc3ccc4c(c3)n(C)c(=O)n4C)Cc3ccc4c(c3)n(C)c(=O)n4C)cc2)cc1OC [Compound 169] | > 1000
39 | COc1cc(NC(=O)c2cc(=O)c3ccccc3o2)c(C(=O)Nc2ccc(CCN(C)Cc3cc(-n4cnc(C)c4)ccc3C)cc2)cc1OC [Compound 117] | 250 to 500
40 | COc1cc(NC(=O)c2cc(=O)c3ccccc3o2)c(C(=O)Nc2ccc(CCN(Cc3cccnc3)Cc3ccc4cnn(C)c4c3)cc2)cc1OC [Compound 42] | 250 to 500
41 | COc1cc(NC(=O)c2cc(=O)c3ccccc3o2)c(C(=O)Nc2ccc(CCN(Cc3cncc(C(C)C)c3)Cc3ccc4c(cnn4C)c3)cc2)cc1OC [Compound 253] | 500 to 1000
42 | COc1cc(NC(=O)c2cc(=O)c3ccccc3o2)c(C(=O)Nc2ccc(CCN(Cc3cccnc3)Cc3ccc4c(c3)CCO4)cc2)cc1OC [Compound 45] | 250 to 500
43 | COc1cncc(CN(CCc2ccc(NC(=O)c3cc(OC)c(OC)cc3NC(=O)c3cnc4ccccc4c3)cc2)Cc2ccc3c(cnn3C)c2)c1 [Compound 51] | 250 to 500
44 | COc1cc(NC(=O)c2cc(=O)c3ccccc3o2)c(C(=O)Nc2ccc(CCN(C)Cc3cccc(-n4cnc(C)c4)c3)cc2)cc1OC [Compound 11] | 500 to 1000
45 | COC(=O)c1ccc(C(=O)Nc2ccc(CCN(Cc3cncc(OC)c3)Cc3ccc4c(cnn4C)c3)cc2)c(NC(=O)c2cc(=O)c3ccccc3[nH]2)c1 [Compound 79] | 100 to 250
46 | COc1cncc(CN(CCc2ccc(NC(=O)c3cc(OC)c(OC)cc3NC(=O)c3cc(=O)c4ccccc4o3)cc2)Cc2cnc(-c3ccccc3F)nc2)c1 [Compound 230] | 100 to 250
47 | COc1cc(NC(=O)c2cnc3ccccc3n2)c(C(=O)Nc2ccc(CCN(Cc3cncc(C)c3)Cc3ccc4c(cnn4C)c3)cc2)cc1OC [Compound 70] | 100 to 250
48 | COc1cc(NC(=O)c2cc(=O)c3ccccc3o2)c(C(=O)Nc2ccc(CCN(Cc3cccc(-n4ccnc4)c3)Cc3ccc(C)c4ncccc34)cc2)cc1OC [Compound 206] | > 1000
49 | COc1ccc(CN(CCc2ccc(NC(=O)c3cc(OC)c(OC)cc3NC(=O)c3cc(=O)c4ccccc4o3)cc2)Cc2cccc(-n3ccnc3)c2)cc1C#N [Compound 219] | 100 to 250
50 | COc1cc(NC(=O)c2cc(=O)c3ccccc3o2)c(C(=O)NCc2ccc(CN(Cc3ccc4c(cnn4C)c3)Cc3ccccc3-n3ccnc3)cc2)cc1OC [Compound 232] | < 100
51 | COc1cncc(CN(CCc2ccc(NC(=O)c3cc(OC)c(OC)cc3NC(=O)c3ccc4ccccc4n3)cc2)Cc2ccc3c(cnn3C)c2)c1 [Compound 53] | 100 to 250
52 | COc1cc(NC(=O)c2cc(=O)c3ccccc3o2)c(C(=O)Nc2ccc(CCN(C)Cc3cccc(-c4c[nH]cn4)c3)cc2)cc1OC [Compound 13] | > 1000
53 | COc1cc(NC(=O)c2cnc3ccccc3c2)c(C(=O)Nc2ccc(CCN(Cc3ccc(-n4ccnc4)cc3)Cc3ccc4c(cnn4C)c3)cc2)cc1OC [Compound 145] | 500 to 1000
54 | COc1cc(NC(=O)c2cc(=O)c3ccccc3o2)c(C(=O)Nc2ccc(CCN(C)Cc3ccc(-c4ncco4)cc3)cc2)cc1OC [Compound 114] | > 1000
55 | CCN(CCc1ccc(NC(=O)c2cc(OC)c(OC)cc2NC(=O)c2cc(=O)c3ccccc3o2)cc1)Cc1ccc(OC)c(Cn2cncn2)c1 [Compound 24] | 100 to 250
